Data set [1] has as its target Kappa-type opioid receptor (Mus musculus, UniProt P33534). The data set can be described thus: Displacement of [3H]diprenorphine from mouse KOR expressed in CHO cells assessed as dissociation constant incubated for […] by radioligand binding assay. It is filed as cell-based.
Data set [2] addresses Mu-type opioid receptor (Mus musculus, UniProt P42866). The data set can be described thus: Displacement of [3H]Naloxone from mouse MOR expressed in CHO cells assessed as dissociation constant incubated for […] by radioligand binding assay. It is filed as cell-based.
For data set [3], the target named is T1, Delta-type opioid receptor (Homo sapiens, UniProt P41143). The data set can be described thus: Displacement of [3H]diprenorphine from human DOR expressed in CHO cells assessed as dissociation constant incubated for […] by radioligand binding assay. It is filed as cell-based.
For data set [4], the system named is Mus musculus. The data set can be described thus: Antinociception activity in male Swiss Webster mouse model assessed as increase in maximum possible effect at 10 mg/kg, sc measured after 20 mins by warm-water tail immersion assay relative to control. The format is functional.
Data set [5] has as its target T1, Delta-type opioid receptor. The data set can be described thus: Agonist activity at human DOR expressed in CHO cells increase in [35S]GTPgammaS binding measured after […] by scintillation counter analysis relative to SNC80. It is filed as functional, cell-based. The following applies: filed as agonist.
Data set [6] has as its system Mus musculus. The data set can be described thus: Antinociception activity in male Swiss Webster mouse model assessed as increase in maximum possible effect at 0.1 mg/kg, sc measured after 30 to 180 mins post injection by warm-water tail immersion assay. It is filed as functional, organism-based. Conditions: time 30-180 min.
The nature of data set [7]: Toxicity in Swiss Webster mouse assessed as reduction in sedative effect at 0.1 to 0.5 mg/kg,sc. The format is organism-based. Conditions: in vivo, dose 0.1-0.5 mg/kg.
The nature of data set [8]: Toxicity in Swiss Webster mouse assessed as effect on locomotion at 0.1 to 0.5 mg/kg,sc measured after 30 mins. It is filed as organism-based. Conditions: in vivo, 0.5 h, dose 0.1-0.5 mg/kg.
Data set [9] can be described thus: Toxicity in Swiss Webster mouse assessed as effect on average speed at 0.1 to 0.5 mg/kg,sc measured after 30 mins. The following applies: in vivo, 0.5 h, dose 0.1-0.5 mg/kg. The format is organism-based.
A short description of data set [10]: Abuse liability in male Sprague-Dawley rat assessed as reduction in reinforcement at 0.32 to 10 microg/kg administered per infusion. The format is toxicity. The following applies: in vivo, iv, dose 0.32-10 µg/kg.
Data set [11] can be described thus: Drug uptake in Swiss Webster mouse plasma at 0.1 mg/kg, sc measured after 5 mins by LC-MS/MS analysis. The format is ADME, organism-based. Conditions: in vivo.
For data set [12], the system named is Mus musculus. The data set can be described thus: Antinociception activity in male Swiss Webster mouse model assessed as effect on tail withdrawal latency at 0.1 mg/kg, sc pre incubated with naltrindole for 30 mins followed by compound addition and measured after 20 mins by warm water tail immersion assay. It is filed as functional, organism-based.
Data set [13] deals with Mus musculus. Put plainly: Antinociception activity in male Swiss Webster mouse model assessed as effect on tail withdrawal latency at 0.1 mg/kg, sc pre incubated with nor-BNI for 24 hrs followed by compound addition and measured after 20 mins by warm water tail immersion assay. It is filed as functional, organism-based.
The subject of data set [14] is Mus musculus. The data set can be described thus: Antinociception activity in male Swiss Webster mouse model assessed as effect on tail withdrawal latency at 0.1 mg/kg, sc pre incubated with naltrindole/nor-BNI for 24 hrs followed by compound addition and measured after 20 mins by warm water tail immersion assay. The format is functional, organism-based.
A short description of data set [15]: in vivo. The following applies: Swiss Webster, mouse, blood and plasma, sc, 0.1 mg/kg.
Description: Ratio of drug level in Swiss Webster mouse blood to plasma at 0.1 mg/kg, sc measured after 30 mins by LC-MS/MS analysis
A short description of data set [16]: in vivo. The following applies: Swiss Webster, mouse, blood and plasma, sc, 0.1 mg/kg. The source holds these as a separate data set.
Description: Ratio of drug level in Swiss Webster mouse blood to plasma at 0.1 mg/kg, sc measured after 60 mins by LC-MS/MS analysis
For data set [17], the system named is Mus musculus. Put plainly: Antinociception activity in male Swiss Webster mouse model assessed as increase in maximum possible effect at 0.1 mg/kg, sc measured after 30 to 360 mins post injection by warm-water tail immersion assay. It is filed as functional, organism-based. Conditions: time 30-360 min.
In data set [18] the test system is Mus musculus. The data set can be described thus: Antinociception activity in male Swiss Webster mouse model assessed as increase in maximum possible effect at 0.05 mg/kg, sc measured until 3 hrs post injection by warm-water tail immersion assay. The format is functional, organism-based.
Data set [19] has as its system Mus musculus. Put plainly: Antinociception activity in male Swiss Webster mouse model assessed as increase in maximum possible effect at 0.05 mg/kg, sc measured after 6 hrs post injection by warm-water tail immersion assay. It is filed as functional, organism-based.
Data set [20] can be described thus: Toxicity in Swiss Webster mouse assessed as reduction in sedative effect at 0.05 to 0.5 mg/kg,sc. It is filed as organism-based. The following applies: in vivo, dose 0.05-0.5 mg/kg.
Data set [21] is described as follows: Toxicity in Swiss Webster mouse assessed as effect on locomotion at 0.05 to 0.5 mg/kg,sc measured after 30 mins. The format is organism-based. Conditions: in vivo, 0.5 h, dose 0.05-0.5 mg/kg.
Data set [22] is described as follows: Toxicity in Swiss Webster mouse assessed as effect on average speed at 0.05 to 0.5 mg/kg,sc measured after 30 mins. Conditions: in vivo, 0.5 h, dose 0.05-0.5 mg/kg. It is filed as organism-based.
Data set [23] deals with Mus musculus. Put plainly: Antinociception activity in male Swiss Webster mouse model assessed as effect on tail withdrawal latency at 0.05 to 0.1 mg/kg, sc pre incubated with naltrindole for 30 mins followed by compound addition and measured after 20 mins by warm water tail immersion assay. The format is functional, organism-based. The following applies: dose 0.05-0.1 mg/kg.

Data set [24] relates to Mus musculus. The data set can be described thus: Antinociception activity in male Swiss Webster mouse model assessed as effect on tail withdrawal latency at 0.05 to 0.1 mg/kg, sc pre incubated with nor-BNI for 24 hrs followed by compound addition and measured after 20 mins by warm water tail immersion assay. The following applies: dose 0.05-0.1 mg/kg. The format is functional, organism-based.

Data set [25] deals with Mus musculus. Put plainly: Antinociception activity in male Swiss Webster mouse model assessed as effect on tail withdrawal latency at 0.05 to 0.1 mg/kg, sc pre incubated with nor-BNI/naltrindole for 24 hrs followed by compound addition and measured after 20 mins by warm water tail immersion assay. It is filed as functional, organism-based. The following applies: dose 0.05-0.1 mg/kg.

The nature of data set [26]: in vivo. Conditions: Swiss Webster, mouse, blood and plasma, sc, 0.1 mg/kg. The source holds these as a separate data set.
Description: Ratio of drug level in Swiss Webster mouse blood to plasma at 0.1 mg/kg, sc measured after 10 mins by LC-MS/MS analysis
Data set [27] deals with T1, Delta-type opioid receptor. The data set can be described thus: Binding affinity to DOR (unknown origin) assessed as dissociation constant.
Data set [28] has as its system Mus musculus. Put plainly: Antinociception activity in male Swiss Webster mouse model assessed as effective dose administered as sc dose measured after 20 mins by warm-water tail immersion assay. It is filed as functional.
The subject of data set [29] is Mus musculus. Put plainly: Antinociception activity in male Swiss Webster mouse model assessed as increase in maximum possible effect at 0.1 mg/kg, sc measured after 30 to 60 mins post injection by warm-water tail immersion assay. It is filed as functional, organism-based. Conditions: time 30-60 min.
The subject of data set [30] is Mus musculus. The data set can be described thus: Antinociception activity in male Swiss Webster mouse model assessed as increase in maximum possible effect at 0.1 mg/kg, sc measured after 4 to 9 hrs post injection by warm-water tail immersion assay. It is filed as functional, organism-based. Conditions: time 4-9 hrs.
Data set [31] in a line: Toxicity in Swiss Webster mouse assessed as reduction in locomotion activity administered as sc dose measured for 30 mins. The format is organism-based. The following applies: in vivo, 0.5 h, dose 0.1-0.5 mg/kg.
Data set [32] can be described thus: Abuse liability in male Sprague-Dawley rat assessed as reduction in reinforcement at 0.1 to 10 microg/kg administered per infusion. It is filed as toxicity. Conditions: in vivo, iv, dose 0.1-10 µg/kg.
Data set [33] addresses T1, Delta-type opioid receptor.

Structures are written as SMILES. Active and inactive are the calls of the source. The calls are words filed in the database; no cut-off is given here.

T1 sequence (P41143 whole entry): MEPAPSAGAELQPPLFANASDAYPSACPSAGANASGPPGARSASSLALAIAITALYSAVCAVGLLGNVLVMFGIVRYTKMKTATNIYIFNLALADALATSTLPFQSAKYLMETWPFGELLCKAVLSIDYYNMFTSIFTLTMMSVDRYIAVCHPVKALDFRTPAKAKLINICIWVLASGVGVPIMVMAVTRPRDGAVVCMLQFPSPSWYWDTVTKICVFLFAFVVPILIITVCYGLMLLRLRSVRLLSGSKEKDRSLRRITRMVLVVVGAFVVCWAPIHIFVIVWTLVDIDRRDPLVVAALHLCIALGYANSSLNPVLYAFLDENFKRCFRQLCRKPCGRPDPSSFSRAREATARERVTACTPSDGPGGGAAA
Kappa-type opioid receptor, sequence (P33534 whole entry): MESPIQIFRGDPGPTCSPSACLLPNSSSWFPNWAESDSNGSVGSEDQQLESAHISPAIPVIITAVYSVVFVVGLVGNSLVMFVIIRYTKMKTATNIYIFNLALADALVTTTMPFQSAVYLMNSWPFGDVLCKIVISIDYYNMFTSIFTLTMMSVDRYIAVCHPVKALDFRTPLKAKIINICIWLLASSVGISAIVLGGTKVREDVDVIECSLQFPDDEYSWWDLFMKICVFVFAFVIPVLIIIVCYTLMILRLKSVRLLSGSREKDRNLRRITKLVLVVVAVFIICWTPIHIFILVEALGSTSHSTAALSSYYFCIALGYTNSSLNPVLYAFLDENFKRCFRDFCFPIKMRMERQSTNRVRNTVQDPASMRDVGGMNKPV
Mu-type opioid receptor, sequence (P42866 whole entry): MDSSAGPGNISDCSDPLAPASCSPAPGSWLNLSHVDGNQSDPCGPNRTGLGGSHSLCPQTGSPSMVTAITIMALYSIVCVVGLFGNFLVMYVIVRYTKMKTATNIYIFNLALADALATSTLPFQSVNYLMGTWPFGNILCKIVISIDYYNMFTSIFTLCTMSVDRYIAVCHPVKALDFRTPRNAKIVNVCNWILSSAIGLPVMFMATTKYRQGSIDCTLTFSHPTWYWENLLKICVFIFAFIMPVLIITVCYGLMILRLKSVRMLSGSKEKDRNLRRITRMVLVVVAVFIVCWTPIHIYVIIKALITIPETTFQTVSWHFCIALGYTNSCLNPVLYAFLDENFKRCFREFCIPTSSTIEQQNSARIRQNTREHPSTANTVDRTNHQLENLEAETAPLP

Take `CN(C(=O)/C=C/c1ccco1)[C@H]1CC[C@@]2(O)[C@H]3Cc4ccc(O)c5c4[C@@]2(CCN3CC2CC2)[C@H]1O5.Cl`: the figures for the dissociation constant Kd in data set [1], in data set [2] and in data set [3] were 0.14 nM, 0.2 nM and 0.93 nM, respectively. The MPE in [4] stood at 80%. In data set [5], this molecule displayed a maximum response (Emax) of 83.2%. Moreover, the result in data set [6] was Active. Further, the Activity result in data set [7] was “Toxic”; in data set [8], “Toxic”; in [9], “Toxic”; in data set [10], “Non-Toxic”. In [11], the Drug uptake entry is given as “Active”. In addition, the result in [12], in data set [13] and in data set [14] was inactive. Further, in [15], the blood plasma ratio at 0.5 h worked out at 0.633. The blood plasma ratio at 1 h in [16] is 0.938.
As for `CN(C(=O)/C=C/c1ccco1)[C@@H]1CC[C@@]2(O)[C@H]3Cc4ccc(O)c5c4[C@@]2(CCN3CC2CC2)[C@H]1O5.Cl`, the dissociation constant (Kd) in [1] was determined as 0.22 nM; in data set [2], 0.78 nM; in data set [3], 7.93 nM. Moreover, the MPE in data set [4] was 100%. For the same molecule, the Emax in data set [5] came to 96.1%. The outcome in data set [17] and in [18] was Active. For the same molecule, the outcome in data set [19], in [23], in [24] and in data set [25] was inactive. The Activity result in [20] is listed as “Toxic”; in data set [21], “Toxic”; in data set [22] it was “Toxic”; in [10], “Non-Toxic”. Moreover, the Drug uptake entry in data set [11] is “Active”. Besides, the blood plasma ratio at 10 min in [26] was found to be 0.762. In addition, the blood plasma ratio at 0.5 h in [15] is 0.645. Also, the blood plasma ratio at 1 h in data set [16] was 1.45.
`CN(C(=O)/C=C/c1ccoc1)[C@@H]1CC[C@@]2(O)[C@H]3Cc4ccc(O)c5c4[C@@]2(CCN3CC2CC2)[C@H]1O5.Cl` [NALFURAFINE HYDROCHLORIDE]: the Kd in data set [27] came out at 116 nM. In [4], the MPE amounted to 80%. For the same molecule, the ED50 in data set [28] came out at 0.046 mg/kg. Besides, the outcome in [29] was Active. Further, the result in [30], in [12], in [13] and in data set [14] was inactive. The Activity result is “Dose-Dependent Effect” in [31], “Toxic” in data set [8], “Toxic” in data set [9] and “Non-Toxic” in data set [32]. The molecule further registered an EC50 in data set [33] of 141 nM.

For the origin of these results see ChEMBL document CHEMBL5506068 (J Med Chem, 2024).
